99 compounds from ChEMBL document CHEMBL3507680, “University of Dundee, Gates Library screen for HepG2 cell viability” can be followed below.

The series is described as follows: Human HepG2 cell viability assay in 384 well format. The series is classed as toxicity, cell-based. Conditions: HepG2 cells, read-out: Inhibition. The arrangement: dose 125 nL, time 70.5 hour; cytotoxicity at 70.5 h: concentration not given beside the values.
Regarding `CC(O)CN(C)c1cc(C(F)(F)F)nc(-c2cccnc2)n1` (centres undefined), the cytotoxicity at 70.5 h was -3.49%.

Regarding `COc1ncccc1C1CC(=O)Nc2cc(NS(C)(=O)=O)ccc21` (centres undefined), the cytotoxicity at 70.5 h is -9.6%.

With `CC(C)COCC(NC(=O)Cc1ccn[nH]1)c1ccco1` (centres undefined), the cytotoxicity at 70.5 h is -6.61%.

Take `CCC(C(=O)NCc1ccncc1)N(c1cccc(C)c1)S(C)(=O)=O` (centres undefined): the cytotoxicity at 70.5 h is -9.28%.

Consider `Cc1ccc(N2C[C@@H](CN3CCOCC3)[C@@H](CO)C2)nn1`, for which the cytotoxicity at 70.5 h is -16.8%.

As for `O=C(c1occc1CN1C(=O)Cc2ccccc21)N1CCCCCC1`, the cytotoxicity at 70.5 h is -3.4%.

Turning to `O=C(O)CSc1nnc(-c2cn[nH]c2)n1-c1ccccc1Cl`, the cytotoxicity at 70.5 h worked out at 17.6%.

In the case of `CC(C)c1ncncc1C(=O)N1CCN(Cc2ccccn2)CC1`, the cytotoxicity at 70.5 h is -7.1%.

`O=C1CCCC2=C1C(c1ccccc1Cl)Nc1nonc1N2` (centres undefined): the cytotoxicity at 70.5 h was 0.0122%.

Consider `CCn1cnnc1CNC(=O)N1CCN(c2ccc(OC)cc2)CC1`, for which the cytotoxicity at 70.5 h is -11.7%.

Take `O=C1CCCCN1Cc1cccc(OC(F)F)c1`: the cytotoxicity at 70.5 h is 4.41%.

Consider `COCCN1CCN(c2cc(OC)ncn2)Cc2ccc(C)nc21`, for which the cytotoxicity at 70.5 h was -10.4%.

On to `O=C1N(Cc2cccnc2)CCC12CCCN(c1ncccn1)C2` (centres undefined), for which the cytotoxicity at 70.5 h was 17.3%.

In the case of `COc1cccc(C(=O)N2CCCC2c2ncc3c(n2)CCN(C)C3)c1` (centres undefined), the cytotoxicity at 70.5 h was -0.392%.

For `Cc1ccc(OC2(C(=O)O)CCN(C(=O)c3cccs3)CC2)cn1`, the cytotoxicity at 70.5 h was 17.4%.

For `CC(C)(C)CC(=O)N1C[C@@H]2C[C@H]1CN2`, the cytotoxicity at 70.5 h was -8.19%.

With `O=C(O)C(c1cccc2c1OCC2)N1CCC(N2CCSCC2)CC1` (centres undefined), the cytotoxicity at 70.5 h was 0.963%.

For `CCOc1ccc(NC(=O)Nc2cnc(N3CCOCC3)nc2)cc1`, the cytotoxicity at 70.5 h was found to be 3.88%.

On to `Cn1ccc2c(-c3nccc(N)n3)ccnc21`, for which the cytotoxicity at 70.5 h is 5.54%.

Turning to `COc1ccc(-c2cnc(CN(CC(N)=O)C3CCCC3)o2)cc1`, the cytotoxicity at 70.5 h was -11.2%.

Regarding `CCS(=O)(=O)c1ccc(N2CCC(N)CC2)cc1`, the cytotoxicity at 70.5 h was -1.97%.

Turning to `COC(=O)CCCNC(=O)Nc1ccccc1OC`, the cytotoxicity at 70.5 h was found to be 12.5%.

Turning to `CNc1cc(C2CN(Cc3csc(C)n3)CCO2)nc(C)n1` (centres undefined), the cytotoxicity at 70.5 h came out at 9.88%.

Take `Cc1cc(C)nc(CCNc2nccc(CCC(F)(F)F)n2)n1`: the cytotoxicity at 70.5 h is 8.35%.

Turning to `CSC1=Nc2c(cnn2-c2ccc(C)cc2)C2=NCCCN12`, the cytotoxicity at 70.5 h was -10.1%.

For `c1ccc(-c2noc(CCCN3CCCC3Cn3cncn3)n2)cc1` (centres undefined), the cytotoxicity at 70.5 h was -13.4%.

On to `CC(C)c1nnc(NC(=O)C2CSCN2C(=O)C2CCC2)s1` (centres undefined), for which the cytotoxicity at 70.5 h was -8.18%.

Regarding `Cc1noc(C)c1CSC1CCCN(c2cnn(C)c2)C1=O` (centres undefined), the cytotoxicity at 70.5 h was 5.52%.

`COC(=O)CNC(=O)C(C)Oc1ccccc1C(F)(F)F` (centres undefined): the cytotoxicity at 70.5 h was -3.31%.

Consider `CN1CCCN(C(=O)c2csc3nc(-c4ccc(Cl)cc4)cn23)CC1`, for which the cytotoxicity at 70.5 h was -23%.

As for `CN(Cc1ccncc1)C(=O)Nc1cnn(CC(N)=O)c1`, the cytotoxicity at 70.5 h is -4.03%.

Take `CCO[C@@H]1CC[C@H]2[C@H]1OCCN2C(=O)C1CCOCC1`: the cytotoxicity at 70.5 h was -2.08%.

As for `N#Cc1ccc(CN2CCCC3(Cc4ccccc4CNC3=O)C2)cc1` (centres undefined), the cytotoxicity at 70.5 h is 31.4%.

Regarding `CC(C)n1ccc2cc(C(=O)Nc3nc[nH]n3)ccc21`, the cytotoxicity at 70.5 h is -15.9%.

Consider `O[C@@]1(Cn2cnc(Cl)c2Cl)CCCN2CCCC[C@@H]21`, for which the cytotoxicity at 70.5 h was -12.5%.

Consider `COc1ccc(F)c(CN2CCCC(O)(CNCC(C)(C)C)C2=O)c1` (centres undefined), for which the cytotoxicity at 70.5 h turned out to be 13.1%.

Consider `c1ccc(CN2CC[C@@H]3O[C@H](COCc4ccncc4)CC[C@@H]32)nc1`, for which the cytotoxicity at 70.5 h is -13%.

Turning to `Cc1ccccc1-n1cc(CNc2ncnc3c2CCNCC3)cn1`, the cytotoxicity at 70.5 h was -13.6%.

As to `COc1nn(C)c2c1CCCN(C(=O)c1ccc[nH]1)C2`, the cytotoxicity at 70.5 h was -99.5%.

Take `O=C(c1cscn1)N1C[C@H]2CCC[C@@]2(COCc2ccccn2)C1`: the cytotoxicity at 70.5 h is -6.34%.

As for `Cc1cnn(Cc2cccc(OCC(N)=O)c2)c1`, the cytotoxicity at 70.5 h is -1.49%.

For `COCC(=O)N1CCC2(CC1)CN(CC1CC1)c1ccc(F)cc12`, the cytotoxicity at 70.5 h stood at 2.37%.

On to `CN(C)C(=O)CN1C[C@H]2CCN(Cc3ccccc3)CC[C@H]2S1(=O)=O`, for which the cytotoxicity at 70.5 h was -8.74%.

For the compound `CN(C)CCOCc1nnc2n1CCN(Cc1cccs1)CC2`, the cytotoxicity at 70.5 h worked out at 1.78%.

With `CNc1cc(C2CN(Cc3cccnc3NC)CCO2)nc(C)n1` (centres undefined), the cytotoxicity at 70.5 h was -2.49%.

As for `CC(C)OCC(=O)N1CCC(c2ncncc2-c2ccnc(N)c2)C1` (centres undefined), the cytotoxicity at 70.5 h is -5.98%.

Consider `CC(C)(C)c1ccc(-c2n[nH]c3c2CN(CC2CCOC2)CC3)cc1` (centres undefined), for which the cytotoxicity at 70.5 h was -12%.

`CC(=O)N1CCC(NC(=O)c2ccc3c(c2O)OC(C)(C)C3)CC1`: the cytotoxicity at 70.5 h is -12.2%.

Take `O=C(O)C1c2nc[nH]c2CCN1Cc1cc(-c2ccccc2)no1` (centres undefined): the cytotoxicity at 70.5 h was -4.98%.

For `CCn1ncc2c1CCCC2NCc1csc(COC)n1` (centres undefined), the cytotoxicity at 70.5 h is 21.6%.

With `CN(C)C(=O)C1(c2cnccn2)CCCN1C(=O)Cc1ccccc1` (centres undefined), the cytotoxicity at 70.5 h was -5.41%.

Consider `Cc1ccn(Cc2nc(CC(C)C)no2)c(=O)c1`, for which the cytotoxicity at 70.5 h was -6.72%.

Consider `Cc1cnn(CCNCc2csc(-c3ccc(C(N)=O)cc3)n2)c1`, for which the cytotoxicity at 70.5 h was -1.79%.

`NC(=O)CC1CCN(c2cncc(OCc3ccccc3)n2)CC1`: the cytotoxicity at 70.5 h is -5.14%.

Consider `Cc1nnsc1C(=O)N1CCN(C(=O)C2CCC2)[C@@H]2CS(=O)(=O)C[C@@H]21`, for which the cytotoxicity at 70.5 h is -10.8%.

With `O=C(NCCn1ccnc1)c1ccn(-c2cccc(F)c2)n1`, the cytotoxicity at 70.5 h amounted to 12.4%.

For `CCc1csc(CNC2CCN(c3ccc(C)cc3)CC2)n1`, the cytotoxicity at 70.5 h was 2.12%.

Take `COc1ccc(C2(NC(=O)C3CC(=O)N(C)C3)CCCC2)cc1` (centres undefined): the cytotoxicity at 70.5 h came out at 20.4%.

Consider `CCOC(=O)CN1CCC2(CC1)CC(=O)c1ccc3ccccc3c1O2`, for which the cytotoxicity at 70.5 h was -5.23%.

For `CCCc1cc(C(=O)N(CC)Cc2ccncc2)[nH]n1`, the cytotoxicity at 70.5 h is -7.59%.

Take `COc1ccccc1CN(Cc1cccs1)S(=O)(=O)N(C)C(C)C`: the cytotoxicity at 70.5 h was -2.73%.

In the case of `CN(C)S(=O)(=O)N1CC[C@]2(O)CCN(Cc3cccc(C#N)c3)C[C@@H]2C1`, the cytotoxicity at 70.5 h was determined as 9.63%.

Take `Brc1cccc(-c2nnc(CNCCn3cccn3)o2)c1`: the cytotoxicity at 70.5 h was -10.8%.

As for `CC(=O)Nc1nc(CN(C)CC2CCCN2c2cccnn2)cs1` (centres undefined), the cytotoxicity at 70.5 h is -12.7%.

As for `Cn1ccnc1CN1CCCC1Cn1cccn1` (centres undefined), the cytotoxicity at 70.5 h was -1.33%.

For `COc1ccc(Cl)cc1S(=O)(=O)N(C)CC(N)=O`, the cytotoxicity at 70.5 h is -5%.

As for `CCN1CC(C(=O)NCCn2cccc2)CC1=O` (centres undefined), the cytotoxicity at 70.5 h is -4.38%.

As to `Cc1cc(C(=O)NCC(c2ccsc2)N(C)C)no1` (centres undefined), the cytotoxicity at 70.5 h was -5.66%.

Turning to `COc1ccc(OC)c(C2CCN(C(=O)[C@H]3CC[C@@H](O)CC3)C2)c1` (some centres undefined), the cytotoxicity at 70.5 h was -9.68%.

As for `Cc1nn(C)c(N2CCOCC2)c1CNC1CCC(O)CC1` (centres undefined), the cytotoxicity at 70.5 h is -1.76%.

Take `NC(=O)c1cc(CC2CCCN(c3cnccn3)C2)ncn1` (centres undefined): the cytotoxicity at 70.5 h is -6.16%.

With `CCOc1cccc(CNc2ccccc2Cl)c1O`, the cytotoxicity at 70.5 h is -4.02%.

With `CN(Cc1nnc2ccccn12)C(=O)NC1CCCCC1`, the cytotoxicity at 70.5 h was -4.44%.

As to `Cc1noc(C(C)N2CCN(Cc3nc(C)c(C)o3)CC2)n1` (centres undefined), the cytotoxicity at 70.5 h was -3.69%.

For the compound `COCCN(Cc1cccc(C#N)c1)Cc1nc(C)no1`, the cytotoxicity at 70.5 h turned out to be 28.5%.

As for `CC(=O)N1[C@H](CN(C)C)C[C@@H]2CN(C(=O)c3occc3C)CC[C@@H]21`, the cytotoxicity at 70.5 h is -3.81%.

On to `CCc1nc(CN2CC[C@@](O)(CCOC)[C@H](C)C2)cs1`, for which the cytotoxicity at 70.5 h stood at 17.7%.

As for `O=C1OCCC1N1CCN(c2ccccn2)CC1` (centres undefined), the cytotoxicity at 70.5 h is -15.5%.

`c1ccc(OC[C@H]2CCC[C@]23CN(Cc2nccs2)CCO3)nc1`: the cytotoxicity at 70.5 h is -4.23%.

On to `c1cc(CN2CCO[C@H]3[C@H](OCCN4CCCC4)CC[C@@H]32)co1`, for which the cytotoxicity at 70.5 h is -14.8%.

For `CCCc1csc(-c2ccc(S(C)(=O)=O)cc2)n1`, the cytotoxicity at 70.5 h is -1.59%.

Take `N#Cc1ccc(C(=O)N2CCC3(CC2)C(=O)Nc2ccccc23)cn1`: the cytotoxicity at 70.5 h was -11.7%.

With `CN(C(=O)c1ccc[nH]1)C1CC(=O)N(Cc2ccccc2)C1=O` (centres undefined), the cytotoxicity at 70.5 h was -4.14%.

As for `O=C(c1ccco1)N1CCn2cc(CN3CCCC3)nc2C1`, the cytotoxicity at 70.5 h is -1.74%.

In the case of `COc1ccc(Cl)cc1CCNC(=O)NCc1ccncc1`, the cytotoxicity at 70.5 h was -0.665%.

As to `CC(=O)NC[C@H]1OC[C@@H](NC2CCC(F)(F)CC2)[C@@H]1O`, the cytotoxicity at 70.5 h is -4.95%.

`COc1cc(N2C[C@@H]3COC[C@]3(COc3ccccn3)C2)ncn1`: the cytotoxicity at 70.5 h is -11.5%.

Turning to `O=C(Nc1cccc(N2CCCC2)c1)N[C@H](CCO)c1ccccc1`, the cytotoxicity at 70.5 h is 2.92%.

Take `Cc1cc(C2CCCN(C(=O)COc3ccc(F)cc3)C2)n[nH]1` (centres undefined): the cytotoxicity at 70.5 h is -8.58%.

As for `CCc1nnc2n1CCN(Cc1csc(NC(C)=O)n1)C2`, the cytotoxicity at 70.5 h was -3.38%.

In the case of `O=C(c1cc(Cl)c2c(c1)OCCO2)N1CCCC(n2cncn2)C1` (centres undefined), the cytotoxicity at 70.5 h was -10.2%.

For the compound `O=C(c1ccoc1)N1CCc2c(COCC3CC3)cncc2C1`, the cytotoxicity at 70.5 h was 14.9%.

As for `CCCN1CCCC2(CCN(c3nccc(OC)n3)C2)C1=O` (centres undefined), the cytotoxicity at 70.5 h was 2.5%.

Take `O=C1OCCN1CC(=O)N1C[C@H]2CC[C@@H]1CN(Cc1cscn1)C2`: the cytotoxicity at 70.5 h stood at 27.8%.

In the case of `Cc1cnn(C2CCCN(C(=O)c3cccc4c3OCO4)C2)c1` (centres undefined), the cytotoxicity at 70.5 h is -10.4%.

With `Cc1[nH]c2ccccc2c1-c1ccnc(N[C@@H](CO)C(C)C)n1`, the cytotoxicity at 70.5 h was -3.22%.

On to `C=C(C)COc1cccc(C(=O)N2CCC(O)(c3ccccc3)CC2)c1`, for which the cytotoxicity at 70.5 h amounted to 7.64%.

As to `COCCN1CCC(NC(=O)C/C=C/c2ccc(C(C)C)cc2)CC1`, the cytotoxicity at 70.5 h was 2.87%.

`O=C(CC1CC1)N1C[C@H]2CCN[C@H]2C1`: the cytotoxicity at 70.5 h was -4.97%.
